These results are taken from US20240148821A1, “PHARMACEUTICAL USE OF CYCLIC PEPTIDE COMPOUND” (CHUGAI SEIYAKU KABUSHIKI KAISHA, priority 2021, published 2024).

Bridge positions count the residues as written; N and C are the ends. Square brackets hold non-standard residues; d marks the D form. Peptide text beside a SMILES is read from it. * marks the point of attachment. hPhe(3-Cl-4-CF3) = N[C@@H](CCc1ccc(C(F)(F)F)c(Cl)c1)C(=O)O; NMePhe(3-CF3) = CN[C@@H](Cc1cccc(C(F)(F)F)c1)C(=O)O; NMePhe(4-Cl) = CN[C@@H](Cc1ccc(Cl)cc1)C(=O)O; NMePhe(4-Me) = CN[C@@H](Cc1ccc(C)cc1)C(=O)O; Leu(4,5-dehydro) = C=C(C)C[C@H](N)C(=O)O; NMeGly(cPent) = CN[C@H](C(=O)O)C1CCCC1; Phe(3-I) = N[C@@H](Cc1cccc(I)c1)C(=O)O; Met(O2) = CS(=O)(=O)CC[C@H](N)C(=O)O; NMeCha = CN[C@@H](CC1CCCCC1)C(=O)O; NMeChg = CN[C@H](C(=O)O)C1CCCCC1; NMeI = CC[C@H](C)[C@H](NC)C(=O)O; NMeD = CN[C@@H](CC(=O)O)C(=O)O; NMeL = CN[C@@H](CC(C)C)C(=O)O; NMeV = CN[C@H](C(=O)O)C(C)C; d(β3hA) = C[C@@H](N)CC(=O)O; N(iPr)Gly = CC(C)NCC(=O)O; NMeA = CN[C@@H](C)C(=O)O; NMeAib = CNC(C)(C)C(=O)O; Piperidide = C1CCN(*)CC1; Ac5c = NC1(C(=O)O)CCCC1; Aze = O=C(O)[C@@H]1CCN1; Sar = CNCC(=O)O

This assay concerns Human pancreatic cancer cell line AsPC-1 (G12D mutation Kras). The assay is described as follows: AsPC-1 cell growth inhibition (AsPC-1 CGI). Format: cell-based. To be noted: read-out: AsPC-1 cell growth inhibition, 50% growth inhibitory concentration (IC50 value); 96 hours, CellTiter-Glo, values classified in ranges.
Protocol: Test compounds were serially dilated with dimethyl sulfoxide, and 200 nL was then dispensed to a U-bottom 96-well plate using Labcyte Echo. […] The cell suspension was dispensed to a. plate containing a test compound at 100 μL per well and incubated at 37° C. in a 5% carbon dioxide gas incubator. 96 hours later, 80 μL of CellTiter-Glo (Promega) was added to each well and fluorescence was measured.
Consider `CC[C@H](C)[C@@H]1NC(=O)[C@H](CC(C)C)N(C)C(=O)C[C@@H](C)NC(=O)[C@H](C2CCCC2)N(C)C(=O)C2(CCCC2)NC(=O)[C@@H](C)NC(=O)[C@H](CCc2ccc(C(F)(F)F)c(Cl)c2)NC(=O)CN(C)C(=O)[C@H](Cc2ccc(C)cc2)N(C)C(=O)[C@@H]2CCN2C(=O)[C@H](C)N(C)C1=O` [Compound 1328] (cyclo([Ac5c][NMeGly(cPent)][d(β3hA)][NMeL]I[NMeA][Aze][NMePhe(4-Me)][Sar][hPhe(3-Cl-4-CF3)][dA])), for which the IC50 was over 500 nM.

With `CC[C@H](C)[C@@H]1NC(=O)[C@H](CC(C)C)N(C)C(=O)C[C@@H](C)NC(=O)[C@H](C(C)C)N(C)C(=O)C2(CCCC2)NC(=O)[C@@H]2CCCN2C(=O)[C@H](CCc2ccc(C(F)(F)F)c(Cl)c2)NC(=O)CN(C)C(=O)[C@H](CC2CCCCC2)N(C)C(=O)CN(C)C(=O)CN(C(C)C)C1=O` [Compound 305] (cyclo([Ac5c][NMeV][d(β3hA)][NMeL]I[N(iPr)Gly][Sar][NMeCha][Sar][hPhe(3-Cl-4-CF3)]P)), the IC50 is over 500 nM.

Turning to `CC(C)C[C@H]1C(=O)N[C@@H](CCS(C)(=O)=O)C(=O)N(C)CC(=O)N(C)CC(=O)N(C)[C@@H](CC2CCCCC2)C(=O)N(C)CC(=O)N[C@@H](CCc2ccc(C(F)(F)F)c(Cl)c2)C(=O)N2CCC[C@H]2C(=O)NC2(CCCC2)C(=O)N(C)[C@@H](C2CCCCC2)C(=O)N(C)[C@H](C(=O)N2CCCCC2)CC(=O)N1C` [Compound 283] ([NMeL][Met(O2)][Sar][Sar][NMeCha][Sar][hPhe(3-Cl-4-CF3)]P[Ac5c][NMeChg][NMeD]-Piperidide; lactam N-11), the IC50 was over 500 nM.

As to `CC[C@H](C)[C@@H]1NC(=O)[C@H](CC(C)C)N(C)C(=O)C[C@@H](C(=O)N(C)C)N(C)C(=O)[C@H]([C@@H](C)CC)N(C)C(=O)C2(CCCC2)NC(=O)[C@@H]2CCCN2C(=O)[C@H](CCc2ccc(C(F)(F)F)c(Cl)c2)NC(=O)CN(C)C(=O)[C@H](Cc2ccc(C)cc2)N(C)C(=O)CN(C)C(=O)CN(C)C1=O` [Compound 1836] ([NMeL]I[Sar][Sar][NMePhe(4-Me)][Sar][hPhe(3-Cl-4-CF3)]P[Ac5c][NMeI][NMeD]-NMe2; lactam N-11), the IC50 was at most 20 nM.

With `CC[C@H](C)[C@@H]1NC(=O)[C@H](CC(C)C)N(C)C(=O)C[C@@H](C)NC(=O)[C@H](C(C)C)N(C)C(=O)C2(CCCC2)NC(=O)[C@@H]2CCCN2C(=O)[C@H](CCc2ccc(C(F)(F)F)c(Cl)c2)NC(=O)CN(C)C(=O)[C@H](Cc2cccc(C(F)(F)F)c2)N(C)C(=O)CN(C)C(=O)CN(C)C1=O` [Compound 1575] (cyclo([Ac5c][NMeV][d(β3hA)][NMeL]I[Sar][Sar][NMePhe(3-CF3)][Sar][hPhe(3-Cl-4-CF3)]P)), the IC50 was over 500 nM.

As to `CC[C@H](C)[C@@H]1NC(=O)[C@H](CC(C)C)N(C)C(=O)C[C@@H](C(=O)N2CCCCC2)N(C)C(=O)[C@H](C(C)C)N(C)C(=O)C2(CCCC2)NC(=O)[C@H](C)N(C)C(=O)[C@H](CCc2ccc(C(F)(F)F)c(Cl)c2)NC(=O)CN(C)C(=O)[C@H](CC2CCCCC2)N(C)C(=O)[C@@H]2CCN2C(=O)[C@H](C)N(C)C1=O` [Compound 1243] ([NMeL]I[NMeA][Aze][NMeCha][Sar][hPhe(3-Cl-4-CF3)][NMeA][Ac5c][NMeV][NMeD]-Piperidide; lactam N-11), the IC50 is over 500 nM.

Turning to `C=C(C)C[C@@H]1NC(=O)[C@H](Cc2cccc(I)c2)NC(=O)CN(C)C(=O)[C@H](Cc2ccc(Cl)cc2)N(C)C(=O)[C@@H]2CCN2C(=O)[C@H](C)N(C)C(=O)[C@H]([C@@H](C)CC)NC(=O)[C@H](CC(C)C)N(C)C(=O)C[C@@H](C(=O)N2CCCCC2)N(C)C(=O)[C@H](CC(C)C)NC(=O)C(C)(C)N(C)C1=O` [Compound 1429] ([NMeL]I[NMeA][Aze][NMePhe(4-Cl)][Sar][Phe(3-I)][Leu(4,5-dehydro)][NMeAib]L[NMeD]-Piperidide; lactam N-11), the IC50 is over 500 nM.
